For five compounds, IC50 results are on record in patent publication US20220298146A1, “HETEROCYCLIC DERIVATIVE AND USE THEREOF” (Transthera Sciences (Nanjing), Inc., priority 2019, published 2022).

The target in one assay is T1, H1299 cell pAxl (Homo sapiens, UniProt P30530).
T1 construct: endogenous in cells; host or cells: H1299
T1 sequence (P30530 26-894): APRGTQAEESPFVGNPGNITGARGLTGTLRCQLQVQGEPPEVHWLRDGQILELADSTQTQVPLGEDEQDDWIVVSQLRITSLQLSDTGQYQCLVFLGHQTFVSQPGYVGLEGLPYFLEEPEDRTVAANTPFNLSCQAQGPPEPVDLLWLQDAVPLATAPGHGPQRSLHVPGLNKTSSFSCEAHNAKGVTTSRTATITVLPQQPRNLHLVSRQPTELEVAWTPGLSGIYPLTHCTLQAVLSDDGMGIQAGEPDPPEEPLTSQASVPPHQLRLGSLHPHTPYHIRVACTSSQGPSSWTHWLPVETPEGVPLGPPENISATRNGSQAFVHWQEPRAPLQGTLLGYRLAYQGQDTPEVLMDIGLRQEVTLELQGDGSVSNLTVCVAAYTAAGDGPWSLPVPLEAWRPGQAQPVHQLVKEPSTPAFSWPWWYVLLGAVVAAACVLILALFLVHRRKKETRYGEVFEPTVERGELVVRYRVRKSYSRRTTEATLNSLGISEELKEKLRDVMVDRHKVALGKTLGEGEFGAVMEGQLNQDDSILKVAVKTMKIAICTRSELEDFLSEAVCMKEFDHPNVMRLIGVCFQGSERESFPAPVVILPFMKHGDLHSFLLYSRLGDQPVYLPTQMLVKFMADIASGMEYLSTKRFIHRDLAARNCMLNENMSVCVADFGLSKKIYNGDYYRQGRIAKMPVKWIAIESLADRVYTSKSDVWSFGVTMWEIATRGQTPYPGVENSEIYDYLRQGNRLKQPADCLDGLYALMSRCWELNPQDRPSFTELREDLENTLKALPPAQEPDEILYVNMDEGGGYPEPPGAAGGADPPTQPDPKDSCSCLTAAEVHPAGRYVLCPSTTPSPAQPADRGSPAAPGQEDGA
The assay is described as follows: Inhibitory activity on cell pAxl (H1299 cells, hGAS6 stimulation, Western Blot). Type of assay: cell-based. Particulars: hGAS6 200 ng/mL, tested at 1.1, 3.3, 10 and 30 nM, read-out: Inhibitory Activity on Cell pAx1, IC50. As for the experimental part:
H1299 is a non-small cell lung cancer cell.
Test samples: the compounds of the present invention, having structures shown above.
Test instruments: protein electrophoresis apparatus (made by Bio Rad), membrane transfer apparatus (made by Bio Rad), exposure apparatus (made by Tanon), and CO2 cell incubator (made by Thermo).
H1299 cells were inoculated into a 6-well plate (containing 10% FBS 1640 medium, 5×10^5 cells per well) and adherently cultivated at 37° C. and 5% CO2 for 18 h. The cells were starved overnight, and compounds with different concentrations were added. The compounds had final concentrations of 1.1 nM, 3.3 nM, 10 nM and 30 nM, with DMSO having a final concentration of 1‰. There was a medium containing 10‰ DMSO in the negative control well. The cells were incubated at 37° C. and 5% CO2 for 60 min, and then hGAS6 (R&D, final concentration: 200 ng/mL) was added to each well. The cells were further incubated for 60 min, and then the total protein of the cells was extracted for Western Blot experiment. IC50 values were calculated with GraphPad 5.0 software, and the inhibitory activities of the compounds on cell pAxl were detected.

The next assay deals with T2, LCK (h) (Homo sapiens, UniProt P06239).
T2 construct: purchased
Kind of assay: Enzymatic activity assay, LCK (h) kinase, [γ-33P]-ATP. Type of assay: biochemical. Particulars: 10 μM [γ-33P]-ATP, 40 min, room temperature; read-out: Inhibitory Activity on LCK (h) kinase, IC50. Here is the method: (§1) Test samples: the compounds of the present invention, having structures and preparation methods shown above.
Preparation of Compound Stock Solutions:
(§2) Compounds were each dissolved in 100% DMSO to prepare stock solutions with a maximum concentration of 500 μM.
Preparation of Compound Working Solutions:
(§3) The compound stock solutions were diluted to final concentrations of 500 μM, 150 μM, 50 μM, 15 μM, 5 μM, 1.5 μM, 0.5 μM, 0.15 μM and 0.05 μM to prepare compound working solutions (50×).
Preparation of Different Enzymatic Reaction Solutions:
LCK (h) enzyme was dissolved in a mixture of 50 mM Tris (pH 7.5), 0.1 mM EGTA, 0.1 mM Na3VO4 and 250 μM KVEKIGEGTYGVVYK to prepare an enzyme solution with a final concentration of 45 nM. An Mg/ATP mixture of 10 mM magnesium acetate and 10 μM [γ-^33P]-ATP was used to activate the enzymatic reaction.
(§4) The compound working solutions were added to a 384-well plate, with final concentrations of 10000 nM, 3000 nM, 1000 nM, 300 nM, 100 nM, 30 nM, 10 nM, 3 nM and 1 nM, respectively, and then different enzymatic reaction solutions prepared according to the above conditions were added. The reaction solutions were incubated at room temperature for 40 min, and then 0.5% phosphoric acid solutions were added to terminate the reaction. 10 μL of the reaction solution was added dropwise to P30 filter paper which was washed 4 times with a 0.425% phosphoric acid solution and once with methanol and then placed in a scintillation counter for detection. Gray analysis was performed on the results with Image J software, and IC50 values were calculated with GraphPad 5.0 software.

For another assay, the target named is T3, Axl (h) (Homo sapiens, UniProt P30530).
T3 construct: purchased
T3 sequence (P30530 26-894): T1 sequence (P30530 26-894)
Kind of assay: Enzymatic activity assay, Axl (h) kinase, [γ-33P]-ATP. In kind it is biochemical. Particulars: 10 μM [γ-33P]-ATP, 40 min, room temperature; read-out: Inhibitory Activity on Ax1 (h), IC50. As for the experimental part: as §1
(§5) (1) Preparation of Compound Stock Solutions
as §2
(§6) (2) Preparation of Compound Working Solutions
as §3
(3) Preparation of different enzymatic reaction solutions
Axl (h) enzyme was dissolved in a mixture of 8 mM MOPS (pH 7.0), 0.2 mM EDTA and 250 μM KKSRGDYMTMQIG to prepare an enzyme solution with a final concentration of 1.7 nM. An Mg/ATP mixture of 10 mM magnesium acetate and 10 μM [γ-^33P]-ATP was used to activate the enzymatic reaction.
as §4

Another assay addresses T4, Ron (h) (Homo sapiens, UniProt Q04912).
T4 construct: purchased
The assay is described as follows: Enzymatic activity assay, Ron (h) kinase, [γ-33P]-ATP. In kind it is biochemical. Particulars: 10 μM [γ-33P]-ATP, 40 min, room temperature; read-out: Inhibitory Activity on Ron (h) kinase, IC50. Here is the method:
as §1, §5, §2, §6, §3
(3) Preparation of Different Enzymatic Reaction Solutions
Ron (h) enzyme was dissolved in a mixture of 8 mM MOPS (pH 7.0), 0.2 mM EDTA and 250 μM GGMEDIYFEFMGGKKK to prepare an enzyme solution with a final concentration of 40.4 nM. An Mg/ATP mixture of 10 mM magnesium acetate and 10 μM [γ-^33P]-ATP was used to activate the enzymatic reaction.
as §4

SMILES strings stand for the structures.

T2 sequence (P06239 whole entry): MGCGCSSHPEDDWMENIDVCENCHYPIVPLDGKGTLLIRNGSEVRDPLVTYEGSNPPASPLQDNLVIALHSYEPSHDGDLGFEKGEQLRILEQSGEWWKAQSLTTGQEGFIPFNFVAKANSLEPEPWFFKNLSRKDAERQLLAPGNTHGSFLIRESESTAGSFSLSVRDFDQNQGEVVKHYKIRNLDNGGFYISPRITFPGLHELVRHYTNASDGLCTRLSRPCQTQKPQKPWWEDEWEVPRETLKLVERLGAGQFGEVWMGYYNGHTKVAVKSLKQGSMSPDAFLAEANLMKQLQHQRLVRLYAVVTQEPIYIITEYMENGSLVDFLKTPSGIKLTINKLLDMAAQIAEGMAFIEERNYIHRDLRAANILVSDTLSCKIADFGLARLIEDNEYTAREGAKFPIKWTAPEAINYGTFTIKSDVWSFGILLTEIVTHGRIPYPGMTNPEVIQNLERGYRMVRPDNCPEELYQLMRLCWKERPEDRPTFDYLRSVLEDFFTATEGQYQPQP
T4 sequence (Q04912 25-1400): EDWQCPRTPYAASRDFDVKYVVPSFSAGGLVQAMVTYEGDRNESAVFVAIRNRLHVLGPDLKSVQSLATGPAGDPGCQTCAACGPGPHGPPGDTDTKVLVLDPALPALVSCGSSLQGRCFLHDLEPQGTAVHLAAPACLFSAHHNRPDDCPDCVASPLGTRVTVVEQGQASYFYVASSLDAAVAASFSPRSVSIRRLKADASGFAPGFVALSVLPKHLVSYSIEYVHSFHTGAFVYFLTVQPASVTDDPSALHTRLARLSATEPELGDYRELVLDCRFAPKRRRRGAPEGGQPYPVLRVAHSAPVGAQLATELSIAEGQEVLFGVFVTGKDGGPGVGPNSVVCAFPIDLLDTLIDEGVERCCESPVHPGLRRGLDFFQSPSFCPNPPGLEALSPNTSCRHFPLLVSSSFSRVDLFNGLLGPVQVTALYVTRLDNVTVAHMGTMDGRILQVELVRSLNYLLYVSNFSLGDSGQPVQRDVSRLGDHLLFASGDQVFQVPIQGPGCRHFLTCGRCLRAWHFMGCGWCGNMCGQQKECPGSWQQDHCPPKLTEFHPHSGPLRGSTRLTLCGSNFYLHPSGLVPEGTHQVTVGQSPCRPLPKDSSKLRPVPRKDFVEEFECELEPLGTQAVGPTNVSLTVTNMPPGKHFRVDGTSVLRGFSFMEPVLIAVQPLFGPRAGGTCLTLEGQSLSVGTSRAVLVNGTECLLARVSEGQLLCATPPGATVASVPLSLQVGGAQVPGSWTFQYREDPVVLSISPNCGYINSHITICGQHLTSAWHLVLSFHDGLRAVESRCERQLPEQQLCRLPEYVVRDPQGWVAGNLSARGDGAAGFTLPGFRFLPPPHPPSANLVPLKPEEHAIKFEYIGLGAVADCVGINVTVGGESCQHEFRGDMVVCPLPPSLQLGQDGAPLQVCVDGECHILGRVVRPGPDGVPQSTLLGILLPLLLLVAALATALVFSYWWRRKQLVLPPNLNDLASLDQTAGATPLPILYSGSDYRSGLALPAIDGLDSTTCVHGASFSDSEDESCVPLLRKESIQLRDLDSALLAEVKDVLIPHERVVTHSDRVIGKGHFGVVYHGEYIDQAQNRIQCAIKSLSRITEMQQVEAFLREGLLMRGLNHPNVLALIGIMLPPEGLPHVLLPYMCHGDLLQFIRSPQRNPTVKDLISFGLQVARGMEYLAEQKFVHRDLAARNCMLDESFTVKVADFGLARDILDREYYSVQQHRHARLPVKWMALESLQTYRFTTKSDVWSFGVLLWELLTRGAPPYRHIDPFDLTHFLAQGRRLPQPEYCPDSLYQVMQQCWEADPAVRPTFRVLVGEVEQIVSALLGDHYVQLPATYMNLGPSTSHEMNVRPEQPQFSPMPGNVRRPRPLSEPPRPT

One may read the IC50 as the concentration that gives 50% inhibition. Take `CC(C)n1cc(-c2ccc(F)cc2)c(=O)c(C(=O)Nc2ccc(Oc3cc4cnn(C)c4cc3-c3cn[nH]c3)cn2)n1` [Compound 1, 5-(4-fluorophenyl)-1-isopropyl-N-(5-((1-methyl-6-(1H-pyrazol-4-yl)-1H-indazol-5-yl)oxy)pyridin-2-yl)-4-oxo-1,4-dihydropyridazine-3-carboxamide]: the 50% inhibitory concentration (IC50) on H1299 cell pAxl worked out at 1.1 nM.

As for `CC(C)n1cc(-c2ccc(F)cc2)c(=O)c(C(=O)Nc2cnc(Oc3ccnc(N)c3Cl)nc2)n1` [Compound 16, N-(2-((2-amino-3-chloropyridin-4-yl)oxy)pyrimidin-5-yl)-5-(4-fluorophenyl)-1-isopropyl-4-oxo-1,4-dihydropyridazine-3-carboxamide], the half-inhibitory concentration (IC50) on LCK (h) is 579 nM; at Axl (h), 16 nM.

On to `Nc1nccc(Oc2ncc(NC(=O)c3nn(C4CC4)cc(-c4ccc(F)cc4)c3=O)cn2)c1Cl` [Compound 20, N-(2-((2-amino-3-chloropyridin-4-yl)oxy)pyrimidin-5-yl)-1-cyclopropyl-5-(4-fluorophenyl)-4-oxo-1,4-dihydropyridazine-3-carboxamide], for which the IC50 on LCK (h) is 2250 nM; on Axl (h), 17 nM; at H1299 cell pAxl it was 10 to 30 nM.

`CC(C)n1cc(C(=O)Nc2ccc(Oc3ccnc(N)c3Cl)nc2)c(=O)c(-c2ccc(F)cc2)n1` [Compound 23, N-(6-((2-amino-3-chloropyridin-4-yl)oxy)pyridin-3-yl)-6-(4-fluorophenyl)-2-isopropyl-5-oxo-2,5-dihydropyridazine-4-carboxamide]: the concentration for half-maximal inhibition (IC50) at LCK (h) was greater than 10000 nM; at Axl (h) it was 30 nM; on Ron (h), 92 nM.

For the compound `C=CCn1cc(-c2ccc(F)cc2)c(=O)c(C(=O)Nc2cnc(Oc3ccnc(N)c3Cl)nc2)n1` [Compound 40, 1-allyl-N-(2-((2-amino-3-chloropyridin-4-yl)oxy)pyrimidin-5-yl)-5-(4-fluorophenyl)-4-oxo-1,4-dihydropyridazine-3-carboxamide], the 50% inhibitory concentration (IC50) worked out at 1070 nM on LCK (h) and 13 nM on Axl (h).
